Source: patent US20240400547A1, “2,6-PIPERIDINEDIONE COMPOUND AND APPLICATION THEREOF” (MEDSHINE DISCOVERY INC., priority 2021, published 2024)
Structures can show the parent of a compound that is named as a salt.

What was measured:
[1] = Pharmacokinetic evaluation in beagles; assay type: in vivo, beagle; conditions: beagles (fed)
Source text: In this study, male beagles were selected as test animals, and LC/MS/MS method was used to quantify plasma concentrations of the test compound intravenously injected or intragastrically administered to beagles at different time points, so as to evaluate the pharmacokinetic profile of the compounds of the present disclosure in beagles.
Beagle (male, 7 to 10 kg, Beijing Marshall Biotechnology Co., Ltd.).
• A clear solution of the test compound was slowly injected into beagle via the peripheral vein (fed) (vehicle: […]/10% solutol/85% H2O or 5% DMSO/10% solutol/85% H2O), or intragastrically administered to beagles (fed). For intravenous injection, 0.5 mL blood was collected via the saphenous vein puncture at 0.083, 0.25, 0.5, 1, 2, 4, 6, 8, and 24 h after administration, and placed in a EDTA-2K anticoagulant tube. The mixture was centrifuged at 3200 g for 10 minutes at 2 to 8° C., and the supernatant was separated. For oral administration, 0.5 mL blood was collected via the saphenous vein puncture at 0.083, 0.25, 0.5, 1, 2, 4, 6, 8, and 24 h after administration, and placed in a EDTA-2K anticoagulant tube. The mixture was centrifuged at 3200 g for 10 minutes at 2 to 8° C., and the supernatant was separated. Plasma drug concentrations were determined by LC-MS/MS method, and relevant pharmacokinetic parameters were calculated using Phoenix WinNonlin 6.3 pharmacokinetic software with non-compartmental model linear-log trapezoidal method.

[2] = system: human lymphoma SU-DHL-2 cells; experiment: In vivo efficacy in CB17 SCID mouse model with subcutaneous xenograft tumors of human lymphoma SU-DHL-2 cells; set-up: species or system CB17 SCID mice; conditions: for Tumor volume (Day 0): Day 0 (grouping, baseline); for Tumor volume (Day 0) / Tumor volume (Day 21): average, SEM in next grid line
Protocol: The study evaluates the antitumor effect of the test compounds using a CB17 SCID mouse model with subcutaneous xenograft tumors of SU-DHL-2 human lymphoma cells.
• 1. Experimental animals: CB17 SCID mice, female, 6 to 8 weeks old, weighing 18 to 22 g. Beijing Vital River Laboratory Animal Technology Co., Ltd. • 2. Cell line: human lymphoma SU-DHL-2 cells (Cat. No ATCC-CRL-2956).
Cell culture: Human lymphoma SU-DHL-2 cells (ATCC-CRL-2956) were cultured in suspension in vitro. The culture conditions were RPMI 1640 medium with […] fetal bovine serum, 100 U/mL penicillin and 100 μg/mL streptomycin, and cultured in a 37° C., […] incubator. Routine passaging was performed twice a week. When the cell saturation reached […] and the quantity met the requirements, the cells were collected, counted, and seeded.
Tumor cell seeding and grouping: 0.2 mL (10×10^6 cells) of SU-DHL-2 cells, in a PBS:Matrigel=1:1 mixture, were subcutaneously inoculated into the right dorsal flank of each mouse. When the average tumor volume reached approximately 139 mm^3, the animals were divided into groups for drug administration. The day of grouping was recorded as Day 0, and dosing began according to the body weight of the animals.
The pharmacological experiment consisted of a dosing cycle of seven days, with medication administered once daily at a 24-hour interval. The test compounds were given intragastrically, with a total of three dosing cycles. During the experiment, the body weight and tumor size of the animals were measured twice a week, and clinical symptoms were observed and recorded daily.
The dosing for the test compounds were 10 mg/kg, 30 mg/kg, and 100 mg/kg, with a solvent composition of 10% DMSO/10% Solutol/80% water. The formula for calculating tumor volume (TV) was: 1/2×a×b^2, where a and b were the measured length and width of the tumor, respectively. The formula for calculating the Tumor Growth Inhibition (TGI) rate was: TGI (%)=[(1−(average tumor volume at the end of administration in a treatment group average tumor volume at the beginning of administration in this treatment group))/(average tumor volume at the end of treatment in the vehicle control group−average tumor volume at the beginning of treatment in the vehicle control group)]×100%. Relative Tumor Proliferation rate T/C (%): the calculation formula was as follows: T/C %=TRTV/CRTV×100% (TRTV: average RTV of the treatment group; CRTV: average RTV of the negative control group). According to the results of tumor measurement, the relative tumor volume (RTV) was calculated, and the calculation formula was RTV=Vt/V0, where V0 was the tumor volume measured at the time of group administration (i.e. Day 0), VT was the tumor volume at a certain measurement, and TRTV and CRTV were taken from the same day's data.
Statistical analysis is based on the data of RTV at the end of the experiment and analyzed by SPSS software. For comparisons between two groups, a T test was used. For comparisons among three or more groups, one-way ANOVA was utilized. If the variance was homogenous (no significant difference in F value), Tukey's method was applied for analysis. If the variance was heterogeneous (significant difference in F value), the Games-Howell method was used for testing. A p-value of <0.05 was considered statistically significant.

[3] = intragastric administration 5 mg/kg
[4] = 10 mg/kg intragastric once daily
[5] = 30 mg/kg intragastric once daily
[6] = 100 mg/kg intragastric once daily

O=C1CCC(c2noc3ccc4c(NC(=O)CN5CCN(C[C@H]6CC[C@H](n7cc(NC(=O)c8coc(-c9ccnc(NCC%10CC%10)c9)n8)c(C(F)F)n7)CC6)CC5)cccc4c23)C(=O)N1 (some centres unmarked) [Hydrochloride of WX014]
Area under drug-time curve (0-inf) [1, 3]: 3200 nM·h | Peak concentration [1, 3]: 0.41 µM | Time to peak concentration [1, 3]: 4.00 h | Area under drug-time curve (0-inf) ([1]; intravenous injection 0.5 mg/kg): 440 nM·h | Vd ([1]; male, beagle, dog, plasma, intravenous injection 0.5 mg/kg, read-out: Apparent volume of distribution): 5.83 L/kg | Tumor volume (Day 0) [2, 4]: 139 mm^3 | T/C (%) (Day 21) [2, 4]: 42.33% | TGI (%) (Day 21) [2, 4]: 62.13% | Tumor volume (Day 21) [2, 4]: 800 mm^3 | Tumor volume (Day 0) [2, 5]: 139 mm^3 | T/C (%) (Day 21) [2, 5]: 42.26% | TGI (%) (Day 21) [2, 5]: 61.41% | Tumor volume (Day 21) [2, 5]: 813 mm^3 | Tumor volume (Day 0) [2, 6]: 139 mm^3 | T/C (%) (Day 21) [2, 6]: 33.23% | TGI (%) (Day 21) [2, 6]: 72.07% | Tumor volume (Day 21) [2, 6]: 626 mm^3
